Entries after “also recorded” stand apart in the source; their conditions may differ.
How the values were obtained:
P2Y14R-CHO cells = target: T1, P2Y14R-CHO cells (Homo sapiens, UniProt Q15391); test: confocal fluorescence microscopy labeling of P2Y14R-CHO cells by 11; type: cell-based
T1 sequence (Q15391 1-338): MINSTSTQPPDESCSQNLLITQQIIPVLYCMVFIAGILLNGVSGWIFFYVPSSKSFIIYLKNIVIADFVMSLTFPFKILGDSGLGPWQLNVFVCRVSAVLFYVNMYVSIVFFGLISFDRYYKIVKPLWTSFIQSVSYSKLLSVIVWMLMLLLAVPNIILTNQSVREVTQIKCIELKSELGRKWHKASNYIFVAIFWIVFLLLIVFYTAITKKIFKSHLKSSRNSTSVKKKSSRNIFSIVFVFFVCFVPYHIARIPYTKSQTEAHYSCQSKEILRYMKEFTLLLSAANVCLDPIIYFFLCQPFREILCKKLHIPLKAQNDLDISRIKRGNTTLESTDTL

hP2Y14R [1] = target: T2, hP2Y14R (Homo sapiens, UniProt Q15391); test: competition for fluorescent binding of tracer 11
T2 sequence (Q15391 1-338): T1 sequence (Q15391 1-338)

hP2Y14R [2] = target: T2, hP2Y14R; type: binding
human P2Y14R = target: T3, human P2Y14R (Homo sapiens, UniProt Q15391); test: inhibition of forskolin-stimulated cAMP accumulation in CHO-P2Y14R cells; type: cell-based; settings: cAMP EC50 ratio, hP2Y14R-CHO cells
T3 sequence (Q15391 1-338): T1 sequence (Q15391 1-338)

P2Y6R = settings: read-out: EC50 for activation of the P2Y6R; cited from earlier work

SMILES: O=C(O)c1cc(-c2ccc(C3CCNCC3)cc2)c2ccc(-c3ccc(C(F)(F)F)cc3)cc2c1 [Compound 5, 4-(4-(piperidin-4-yl)-phenyl)-7-(4-(trifluoromethyl)-phenyl)-2-naphthoic acid]
- inhibition of fluorescent labeling by 11 (confocal microscopy) (P2Y14R-CHO cells): complete inhibition of binding
- inhibition of binding of 11 (FCM, concentration dependence) (hP2Y14R [1]): Nearly complete inhibition

SMILES: O=C(COc1ccc(C2=[N+]3C(=Cc4ccc(-c5cccs5)n4[B-]3(F)F)C=C2)cc1)NCCCCCNC(=O)[C@H]1O[C@H](OP(=O)(O)OP(=O)(O)OCC2OC(n3ccc(=O)[nH]c3=O)C(O)C2O)[C@H](O)[C@@H](O)[C@@H]1O (some centres unmarked) [Compound 11]
- Bmax (hP2Y14R [2]; FCM saturation binding, n=3): 44,400 MESF
- level of nonspecific binding (hP2Y14R [2]; FCM, coincubation with up to 200 nM 5): very low
- potency enhancement of the fluorescent conjugate versus 47 nM parent (human P2Y14R): 50 fold

SMILES: CONc1ccn([C@@H]2O[C@H](COP(=O)(O)OP(=O)(O)OP(=O)(O)OC[C@H]3O[C@@H](n4ccc(=O)[nH]c4=O)[C@@H](O)[C@H]3O)[C@H](O)[C@@H]2O)c(=O)n1 [Compound 12, P^1-(uridine 5′-)-P^3-(N^4-methoxycytidine 5′-)triphosphate]
- Ki at P2Y14R relative to EC50 at P2Y6R (hP2Y14R [1]; Ki (FCM, P2Y14R) higher than P2Y6R EC50): about 500 fold
- EC50 (P2Y6R): 12 nM

SMILES: S=C=Nc1cccc(NC(=S)NCCCCNC(=S)Nc2cccc(N=C=S)c2)c1 [Compound 13]
- inhibition of binding of 11 at hP2Y14R at fixed concentration (hP2Y14R [1]; test ligand at 10 μM, tracer 11 50 nM, FCM): did not show any significant binding; also recorded: No inhibition at 10 μM

Reference: paper PMC4607650 (Bioorganic & medicinal chemistry letters, 2015)
